Measurements taken from US9605002B2, “5,5-heteroaromatic anti-infective compounds” (priority 2012, dated 2017).
In brackets after ≈: the same amount, converted by molar mass. Several values for one entry are separate records, joined by “and”; a condition that tells them apart may be missing. Equal entries are not always repeated.

Columns and labels:
[1] = test system: M. tuberculosis (Mtb) H37Rv; assay: Microplate Alamar Blue Assay (MABA), 7H12 media, replicating Mtb; type: cell-based; conditions: Mycobacterium tuberculosis, 7H12 media (no glycerol), read-out: 7H12 media: Replicating H37Rv Mtb: MIC 90
[2] = test system: M. tuberculosis (Mtb) H37Rv; assay: Microplate Alamar Blue Assay (MABA), GAS media, replicating Mtb; type: cell-based, Mycobacterium tuberculosis; conditions: for MIC90: Mycobacterium tuberculosis, GAS (glycerol-alanine-salt) media, replicating H37Rv, read-out: GAS media: replicating H37Rv Mtb: MIC 90
[3] = test system: Drug sensitive Mtb clinical strain #1; assay: MIC against clinical Mtb strains; type: cell-based; conditions: Mycobacterium tuberculosis, 7H9/glucose/glycerol/BSA/0.05% Tween 80, average of three
[4] = test system: VERO kidney epithelial cells; assay: VERO toxicity assessment; conditions: for IC50: Chlorocebus sabaeus, Vero, read-out: VERO: IC50
[5] = test system: Drug sensitive Mtb clinical strain #2; assay: MIC against clinical Mtb strains; type: cell-based; conditions: Mycobacterium tuberculosis, 7H9/glucose/glycerol/BSA/0.05% Tween 80, average of three

| SMILES | MIC90 [1] [µM] | MIC90 [2] [µM] | in vitro activity against H37Rv TB ([2]; statement in words, medium not stated) | MIC90 [3] | IC50 [4] [µM] | therapeutic window ([4]; statement in words) | MIC90 [5] |
| --- | --- | --- | --- | --- | --- | --- | --- |
| Cc1cn2c(C(=O)NCc3ccc(Oc4ccc(F)cc4)cc3)c(C)nc2s1 [ND-010081] | < 2 | < 2 | comparable to the current clinical candidates | < 0.01 µM and < 0.025 µg/mL | 2 to 10 | sufficient therapeutic window for in vivo treatment | < 0.025 µg/mL and < 0.01 µM |
| Cc1nc2sc(F)cn2c1C(=O)NCc1cccc(Cl)c1 [ND-020056] | 2 to 10 (≈ 0.648 to 3.24 µg/mL) | < 2 |  |  | < 32 |  |  |
| Cc1cn2c(C(=O)NCc3cccc(Oc4ccc(C(F)(F)F)cc4)c3)c(C)nc2s1 [ND-020057] | < 2 | < 2 |  |  | < 32 |  |  |
| Cc1cn2c(C(=O)NCc3cccc(Oc4ccc(Cl)cc4)c3)c(C)nc2s1 [ND-020058] | < 2 | < 2 |  |  | 20 to 32 |  |  |
| Cc1cn2c(C(=O)NCc3cccc(Oc4ccc(F)cc4)c3)c(C)nc2s1 [ND-020059] | < 2 | < 2 |  |  | 20 to 32 |  |  |
| Cc1cn2c(C(=O)NCc3ccc(Oc4ccc(Cl)cc4)cc3)c(C)nc2s1 [ND-020060] | < 2 | < 2 |  |  | 10 to 20 |  |  |
| Cc1nc2sc(F)cn2c1C(=O)NCc1ccc2c(c1)OCC2 [ND-020061] | < 2 | < 2 |  |  | < 32 |  |  |
| Cc1nc2sc(Cl)cn2c1C(=O)NCc1ccc2c(c1)OCC2 [ND-020062] | < 2 | < 2 |  |  | < 32 |  |  |
| Cc1nc2sc(C(F)(F)F)cn2c1C(=O)NCc1ccc2c(c1)OCC2 [ND-020063] | 2 to 10 (≈ 0.763 to 3.81 µg/mL) | < 2 |  |  | < 32 |  |  |
| Cc1cn2c(C(=O)NCc3ccc(-n4cccn4)cc3)c(C)nc2s1 [ND-020064] | < 2 | < 2 |  |  | 20 to 32 |  |  |
| Cc1cn2c(C(=O)NCc3ccc(-n4cnnc4)cc3)c(C)nc2s1 [ND-020065] | 2 to 10 (≈ 0.705 to 3.52 µg/mL) | 2 to 10 |  |  | 20 to 32 |  |  |
| Cc1cn2c(C(=O)NCc3ccc4nc(-c5ccc(F)cc5)oc4c3)c(C)nc2s1 [ND-020066] | 2 to 10 (≈ 0.841 to 4.2 µg/mL) | < 2 |  |  | 20 to 32 |  |  |
| CCc1nc2sc(C)cn2c1C(=O)NCc1ccc2nc(-c3ccc(F)cc3)oc2c1 [ND-020067] | 2 to 10 (≈ 0.869 to 4.34 µg/mL) | < 2 |  |  | 20 to 32 |  |  |
| Cc1cn2c(C(=O)NCc3cccc(N4CC(C)CC(C)C4)c3)c(C)nc2s1 (stereo not drawn) [ND-020068] | < 2 | < 2 |  |  | < 32 |  |  |
| Cc1cn2c(C(=O)NCc3ccc(N4CC(C)CC(C)C4)cc3)c(C)nc2s1 (stereo not drawn) [ND-020069] | < 2 | < 2 |  |  | 20 to 32 |  |  |
| Cc1cn2c(C(=O)NCc3ccc(N4CCC(=O)CC4)cc3)c(C)nc2s1 [ND-020070] | 2 to 10 (≈ 0.765 to 3.82 µg/mL) | < 2 |  |  | 20 to 32 |  |  |
| Cc1cn2c(C(=O)NCc3ccc(N4CCCC4)cc3)c(C)nc2s1 [ND-020071] | < 2 | < 2 |  |  | 20 to 32 |  |  |
| Cc1cn2c(C(=O)NCc3cccc(N4CCC(=O)CC4)c3)c(C)nc2s1 [ND-020072] | < 2 | < 2 |  |  | < 32 |  |  |
| Cc1cn2c(C(=O)NCc3cccc(N4CCCC4)c3)c(C)nc2s1 [ND-020073] | < 2 | < 2 |  |  | < 32 |  |  |
| Cc1cn2c(C(=O)NCc3ccc(N4CC(C)OC(C)C4)cc3)c(C)nc2s1 (stereo not drawn) [ND-020074] | < 2 | < 2 |  |  | 20 to 32 |  |  |
| Cc1cn2c(C(=O)NCc3cccc(N4CC(C)OC(C)C4)c3)c(C)nc2s1 (stereo not drawn) [ND-020075] | < 2 | < 2 |  |  | < 32 |  |  |
| Cc1cn2c(C(=O)NCc3ccc(F)c(N4CCOCC4)c3)c(C)nc2s1 [ND-020076] | < 2 | < 2 |  |  | < 32 |  |  |
| Cc1cn2c(C(=O)NCc3ccc4ccn(C)c4c3)c(C)nc2s1 [ND-020077] | < 2 | < 2 |  |  | < 32 |  |  |
| CCc1nc2sc(C)cn2c1C(=O)NCc1ccc2ccn(C)c2c1 [ND-020078] | < 2 | < 2 |  |  | < 32 |  |  |
| Cc1cn2c(C(=O)NCc3ccc4c(ccn4C)c3)c(C)nc2s1 [ND-020079] | < 2 | < 2 |  |  | < 32 |  |  |
| Cc1cn2c(C(=O)NCc3ccc4c(ccn4C)c3)c(C(F)(F)F)nc2s1 [ND-020080] | < 2 | < 2 |  |  | < 32 |  |  |
| Cc1cn2c(C(=O)NCCc3ccc(Cl)cc3)c(C)nc2s1 [ND-020081] | < 2 | < 2 |  |  | < 32 |  |  |
| O=[N+]([O-])c1cn2c(n1)OC[C@@H](OCc1ccc(OC(F)(F)F)cc1)C2 [PA-824, reference compound] |  |  |  | 0.45 µM to 0.86 µM and 0.16 µg/mL to 0.31 µg/mL |  |  | > 13.9 µM and > 5 µg/mL |
